Measurements from paper PMC7665585, “Antidepressive effect of an inward rectifier K^+ channel blocker peptide, tertiapin-RQ” (PLoS ONE, 2020).
Bridge positions count the residues as written; N and C are the ends. Ends that are not written are not given here. Peptide text beside a SMILES is read from it.

Biological target: T1, rat ROMK (Rattus norvegicus, UniProt P35560)
T1 construct: expressed in transfected cells; host or cells: 293T cell line 208-4 (lentiviral transduction, GFP coexpressed)
T1 sequence (P35560 1-391): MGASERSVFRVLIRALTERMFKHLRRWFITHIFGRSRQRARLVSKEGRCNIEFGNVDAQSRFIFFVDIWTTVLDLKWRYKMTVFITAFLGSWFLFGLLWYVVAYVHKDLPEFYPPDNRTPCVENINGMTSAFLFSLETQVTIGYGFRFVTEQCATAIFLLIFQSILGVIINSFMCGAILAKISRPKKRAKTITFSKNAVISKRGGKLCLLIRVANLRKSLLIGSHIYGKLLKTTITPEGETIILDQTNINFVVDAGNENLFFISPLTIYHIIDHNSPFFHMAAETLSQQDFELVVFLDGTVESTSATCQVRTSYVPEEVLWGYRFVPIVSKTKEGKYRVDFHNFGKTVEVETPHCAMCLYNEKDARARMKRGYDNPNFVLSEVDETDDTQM
Assay: Whole-cell patch-clamp of ROMK currents in 208–4 cells
Format: cell-based
Conditions: blockade at 1 μM estimated from fitted Hill curve (four parameters), whole-cell conductance, n = 3–6
From the text: The cDNAs for rat ROMK and mouse GIRK1, 2, and 4 were generously donated by Drs Mikio Hayashi (Kansai Medical University) and David Weaver (Vanderbilt University). The ROMK channels were stably expressed by a cell line, 208–4, which was transduced with lentiviral vectors coexpressing the channel and green fluorescent protein (GFP) as described previously. The GIRK genes, cloned in a pCMV6 plasmid (Origene Technologies Inc, Rockville, MD), were transiently expressed in 293T cells with calcium phosphate transfection. GIRK channel currents were recorded 24 h after transfection.
Cells grown on small cover glasses (3 × 18 mm) were placed in a recording chamber. Whole-cell currents were recorded in Tyrode solution using an Axopatch 200B amplifier (Axon Instruments, Foster City, CA) at 25°C. Tyrode solution contained (in mM): NaCl 140, KCl 5.4, NaH2PO4 0.33, CaCl2 2, MgCl2 1, HEPES 5, and glucose 5.5 (pH 7.4 adjusted with NaOH). High K^+ Tyrode solution (KCL 50 mM, NaCl 95 mM, and others were the same as standard Tyrode solution) was used for the recording of GIRK channels. Patch pipettes pulled from borosilicate glass (Narishige, Tokyo, Japan) were filled with an internal solution containing (in mM): K-aspartate 66, KCl 71.5, KH2PO4 1, EGTA 5, HEPES 5, and MgATP 3 (pH 7.4 adjusted with KOH). Recordings were digitized at 10 kHz, and low-pass filtered at 2 kHz. ROMK, Kir2.1, and GIRK currents were evoked with step pulses of 400 msec from -150 mV to 10 mV in 10 mV increments from a holding potential of -70 mV. Whole-cell currents were recorded 60 sec after the peptide application and those from 100 to 300 msec of the step pulses were averaged. Liquid junction potential or capacitive transient was not corrected or compensated. Whole-cell conductance was calculated as the slope of the current-voltage (I-V) relationship from -140 mV to -100 mV and normalized to the initial value (0 μM TPN), in which BaCl2-resistant current was subtracted and indicted as a percentage.

Compound | Activity (ROMK channel blocking activity, percentage of blockade at 1 μM)
TPN-RQ(C14S) [Peptide 47] | - (-, <20%)
TPN-RQ(C18S) [Peptide 48] | - (-, <20%)
TPN 14–21 [Peptide 17] | - (-, <20%)

Same assay, conditions: blockade at 1 μM estimated from fitted Hill curve (four parameters), whole-cell conductance, n = 3–6, read-out: Activity (ROMK channel blocking activity, percentage of blockade at 1 μM)

Compound | inhibition at 1 µM [%]
RRAIPHQK-NH2 [Peptide 25, TPN-RQ 7-13(I9A) + K] | < 20
CC[C@H](C)[C@@H]1NC(=O)[C@H](CCCNC(=N)N)NC(=O)[C@H](CCCNC(=N)N)NC(=O)[C@H](CC(N)=O)NC(=O)[C@@H]2CSSC[C@@H](C(=O)NCC(=O)N[C@@H](C)C(=O)N[C@@H](CCCCN)C(N)=O)NC(=O)[C@H](CCCCN)NC(=O)[C@H](CCCCN)NC(=O)[C@H](Cc3c[nH]c4ccccc34)NC(=O)[C@H](CSSC[C@H](NC(=O)[C@H](CC(C)C)NC(=O)[C@H](C)N)C(=O)N[C@@H](CC(N)=O)C(=O)N2)NC(=O)[C@H](CCC(N)=O)NC(=O)[C@H](Cc2c[nH]cn2)NC(=O)[C@@H]2CCCN2C(=O)[C@H]([C@@H](C)CC)NC1=O [Peptide 68, TPN-RQ(K20A)] (H-ALCNCNRRIIPHQCWKKCGAK-NH2; disulfide 3-14, 5-18) | 40 to 60
CC[C@H](C)[C@@H]1NC(=O)[C@H](CCCNC(=N)N)NC(=O)[C@H](CCCNC(=N)N)NC(=O)[C@H](CC(N)=O)NC(=O)[C@H](CO)NC(=O)[C@H](CC(N)=O)NC(=O)[C@@H](NC(=O)[C@@H](N)CCC(N)=O)CSSC[C@@H](C(=O)N[C@@H](Cc2c[nH]c3ccccc23)C(=O)N[C@@H](CCCCN)C(N)=O)NC(=O)[C@H](CCC(N)=O)NC(=O)[C@H](CCCCN)NC(=O)[C@@H]2CCCN2C(=O)[C@H]([C@@H](C)CC)NC1=O [Peptide 44, Q + TPN-RQ 3-16(C5S/H12K)] (H-QCNSNRRIIPKQCWK-NH2; disulfide 2-13) | < 20
IIIPHMCW-NH2 [Peptide 11, TPN 8–15] | < 20
CC[C@H](C)[C@@H]1NC(=O)[C@H](CCCNC(=N)N)NC(=O)[C@H](CCCNC(=N)N)NC(=O)[C@H](CC(N)=O)NC(=O)[C@@H](N)CSSC[C@@H](C(N)=O)NC(=O)[C@H](CCC(N)=O)NC(=O)[C@H](CCCCN)NC(=O)[C@@H]2CCCN2C(=O)[C@H]([C@@H](C)CC)NC1=O [Peptide 36, TPN-RQ 5-14(H12K)] (H-CNRRIIPKQC-NH2; disulfide 1-10) | < 20
CC[C@H](C)[C@@H]1NC(=O)[C@H](C)NC(=O)[C@H](CCCNC(=N)N)NC(=O)[C@H](CCCNC(=N)N)NC(=O)[C@H](CC(N)=O)NC(=O)[C@@H]2CSSC[C@@H](C(=O)NCC(=O)N[C@@H](CCCCN)C(=O)N[C@@H](CCCCN)C(N)=O)NC(=O)[C@H](CCCCN)NC(=O)[C@H](CCCCN)NC(=O)[C@H](Cc3c[nH]c4ccccc34)NC(=O)[C@H](CSSC[C@H](NC(=O)[C@H](CC(C)C)NC(=O)[C@H](C)N)C(=O)N[C@@H](CC(N)=O)C(=O)N2)NC(=O)[C@H](CCC(N)=O)NC(=O)[C@H](Cc2c[nH]cn2)NC(=O)[C@@H]2CCCN2C1=O [Peptide 60, TPN-RQ(I9A)] (H-ALCNCNRRAIPHQCWKKCGKK-NH2; disulfide 3-14, 5-18) | 40 to 60
CC(C)C[C@H](NC(=O)[C@H](C)N)C(=O)N[C@H]1CSSC[C@@H]2NC(=O)[C@H](CCC(N)=O)NC(=O)[C@H](Cc3c[nH]cn3)NC(=O)[C@@H]3CCCN3C(=O)[C@H](CCCNC(=N)N)NC(=O)[C@H](CCCNC(=N)N)NC(=O)[C@H](CC(N)=O)NC(=O)[C@H](CSSC[C@@H](C(=O)NCC(=O)N[C@@H](CCCCN)C(=O)N[C@@H](CCCCN)C(N)=O)NC(=O)[C@H](CCCCN)NC(=O)[C@H](CCCCN)NC(=O)[C@H](Cc3c[nH]c4ccccc34)NC2=O)NC(=O)[C@H](CC(N)=O)NC1=O [Peptide 53, TPN-RQ(ΔI9/ΔI10)] (H-ALCNCNRRPHQCWKKCGKK-NH2; disulfide 3-12, 5-16) | < 20
CC[C@H](C)[C@@H]1NC(=O)[C@H](CCCNC(=N)N)NC(=O)[C@H](CC(N)=O)NC(=O)[C@@H]2CSSC[C@@H](C(=O)NCC(=O)N[C@@H](CCCCN)C(=O)N[C@@H](CCCCN)C(N)=O)NC(=O)[C@H](CCCCN)NC(=O)[C@H](CCCCN)NC(=O)[C@H](Cc3c[nH]c4ccccc34)NC(=O)[C@H](CSSC[C@H](NC(=O)[C@H](CC(C)C)NC(=O)[C@H](C)N)C(=O)N[C@@H](CC(N)=O)C(=O)N2)NC(=O)[C@H](CCC(N)=O)NC(=O)[C@H](Cc2c[nH]cn2)NC(=O)[C@@H]2CCCN2C(=O)[C@H]([C@@H](C)CC)NC1=O [Peptide 51, TPN-RQ(Δ8R)] (H-ALCNCNRIIPHQCWKKCGKK-NH2; disulfide 3-13, 5-17) | 40 to 60
CC[C@H](C)[C@@H]1NC(=O)[C@H](CCCNC(=N)N)NC(=O)[C@H](CCCNC(=N)N)NC(=O)[C@H](CC(N)=O)NC(=O)[C@@H]2CSSC[C@@H](C(=O)NCC(=O)N[C@@H](CCCCN)C(=O)N[C@@H](CCCCN)C(N)=O)NC(=O)[C@H](C)NC(=O)[C@H](C)NC(=O)[C@H](Cc3c[nH]c4ccccc34)NC(=O)[C@H](CSSC[C@H](NC(=O)[C@H](CC(C)C)NC(=O)[C@H](C)N)C(=O)N[C@@H](CC(N)=O)C(=O)N2)NC(=O)[C@H](CCC(N)=O)NC(=O)[C@H](Cc2c[nH]cn2)NC(=O)[C@@H]2CCCN2C(=O)[C@H]([C@@H](C)CC)NC1=O [Peptide 66, TPN-RQ(K16A/K17A)] (H-ALCNCNRRIIPHQCWAACGKK-NH2; disulfide 3-14, 5-18) | 20 to 40
CC[C@H](C)[C@@H]1NC(=O)[C@H](CCCNC(=N)N)NC(=O)[C@H](CCCNC(=N)N)NC(=O)[C@H](CC(N)=O)NC(=O)[C@H](CO)NC(=O)[C@H](CC(N)=O)NC(=O)[C@@H](N)CSSC[C@@H](C(=O)N[C@@H](Cc2c[nH]c3ccccc23)C(=O)N[C@@H](CCCCN)C(N)=O)NC(=O)[C@H](CCC(N)=O)NC(=O)[C@H](Cc2c[nH]cn2)NC(=O)[C@@H]2CCCN2C(=O)[C@H]([C@@H](C)CC)NC1=O [Peptide 41, TPN-RQ 3-16(C5S)] (H-CNSNRRIIPHQCWK-NH2; disulfide 1-12) | < 20
CC[C@H](C)[C@@H]1NC(=O)[C@H](CCCNC(=N)N)NC(=O)[C@H](CCCNC(=N)N)NC(=O)[C@H](CC(N)=O)NC(=O)[C@@H](N)CSSC[C@@H](C(=O)N[C@@H](Cc2c[nH]c3ccccc23)C(=O)N[C@@H](CCCCN)C(=O)N[C@@H](CCCCN)C(N)=O)NC(=O)[C@H](CCC(N)=O)NC(=O)[C@H](Cc2c[nH]cn2)NC(=O)[C@@H]2CCCN2C(=O)[C@H]([C@@H](C)CC)NC1=O [Peptide 37, TPN-RQ 5–17] (H-CNRRIIPHQCWKK-NH2; disulfide 1-10) | < 20
RIIIPHMC-NH2 [Peptide 10, TPN 7–14] | < 20
CC[C@H](C)[C@@H]1NC(=O)[C@H](CCCNC(=N)N)NC(=O)[C@H](CCCNC(=N)N)NC(=O)[C@H](CC(N)=O)NC(=O)[C@@H]2CSSC[C@@H](C(=O)NCC(=O)N[C@@H](CCCCN)C(=O)N[C@@H](CCCCN)C(N)=O)NC(=O)[C@H](CCCCN)NC(=O)[C@H](CCCCN)NC(=O)[C@H](Cc3c[nH]c4ccccc34)NC(=O)[C@H](CSSC[C@H](NC(=O)[C@H](C)NC(=O)[C@H](C)N)C(=O)N[C@@H](CC(N)=O)C(=O)N2)NC(=O)[C@H](CCC(N)=O)NC(=O)[C@H](Cc2c[nH]cn2)NC(=O)[C@@H]2CCCN2C(=O)[C@H]([C@@H](C)CC)NC1=O [Peptide 55, TPN-RQ(L2A)] (H-AACNCNRRIIPHQCWKKCGKK-NH2; disulfide 3-14, 5-18) | 60 to 80
CC[C@H](C)[C@@H]1NC(=O)[C@H](CCCNC(=N)N)NC(=O)[C@H](CCCNC(=N)N)NC(=O)[C@H](CC(N)=O)NC(=O)[C@@H](NC(=O)[C@@H](N)CC(N)=O)CSSC[C@@H](C(=O)N[C@@H](Cc2c[nH]c3ccccc23)C(=O)N[C@@H](CCCCN)C(=O)N[C@@H](CCCCN)C(N)=O)NC(=O)[C@H](CCC(N)=O)NC(=O)[C@H](CCCCN)NC(=O)[C@@H]2CCCN2C(=O)[C@H]([C@@H](C)CC)NC1=O [Peptide 40, TPN-RQ 4-17(H12K)] (H-NCNRRIIPKQCWKK-NH2; disulfide 2-11) | < 20
